Results as given in patent publication US7335248B2, “Marine antifouling coating compositions” (Novus International, Inc., priority 2005, dated 2008).
Several values for one entry are separate records, joined by “and”; a condition that tells them apart may be missing. Identical values can stand only once. Like-named read-outs stand apart in the source and are kept apart here.

How the values were obtained:
barnacle cyprids = experiment: Barnacle cyprid settlement assay (method of Rittschof et al.), EC50 by probit analysis; format: in vivo, Balanus amphitrite amphitrite
Experimental: In this case, the defined effect is that the cyprids have not settled and have not attached to the Petri dish. Thus, in the attached data set, the “set” column indicates the total number of cyprid larvae that have settled and attached on the surface of the Petri dish and “non-set” indicates the total number of cyprids that remain swimming in the seawater and have not settled on the surface of the Petri dish.
Briefly, the barnacle adults are cultured in the laboratory and allowed to spawn naturally. The larvae are harvested and grown in artificial culture systems until they reach the cyprid stage at which time the larvae become competent to attach to surfaces. Once attached, the cyprids transform into a pinhead barnacle, thus becoming permanently attached to the surface. Rittschof D, Clare A S, Gerhart D J, Avelin Mary, Bonavetura J (1991) Barnacle in vitro assays for biologically active substances: toxicity and settlement assays using mass cultured Balanus amphitrite amphitrite Darwin. Biofouling (1992) 6:115-122.
(§1) Five replicates (e.g., a-e) for each concentration and the control were collected.

barnacles [1] = experiment: Nine month static immersion testing in the Indian Ocean; format: in vivo; details: 9-month static immersion
Source text: Table 5 summarizes the anti-fouling data from the nine-month immersion test, performed as described above for the six month tests.

[2] = Solubility in seawater at the levels added in the cyprid assay; format: physicochemical; details: at the levels added (up to 0.1 mg/ml)
Source text: as §1

barnacles [3] = experiment: Six month static immersion fouling test of painted PVC panels (open ocean, Tuticorin, India); format: in vivo; details: for Total barnacle Count / Mean ± SD (barnacle count): 6 months; for Total barnacle Count: both duplicate panels; for Mean ± SD (barnacle count): four panel surfaces
Source text: The reported data were extracted from the raw data as described below, and are shown as total barnacle counts for both duplicate panels of each test formulation. In Table 4, the mean and standard deviation of the data derived from the four panels' surfaces of the duplicate panels for each group. The barnacle counts along the edges were not considered in this evaluation because of the expected uneven coating and inherent tendency of barnacles to first attach to edges. In addition, coatings along the edges can be easily damaged or uneven. Thus, for evaluation purposes only the coated surfaces of the flat areas were considered for this evaluation.
Zinc Omadine was used as the positive control for this series of tests. It is important to note here that fouling is continuous throughout the year at the Tuticorin, India site and the degree of settlement is generally the same for the same coating system.

Oyster = details: 5%, 15 months, per panel side
Source text: (§2) HMTBA-Cu and HMTBA-Zn were supplied in powdered form by Novus International. […] The formulated paints were applied on PVC test panels (3 inch by 10 inch, ⅛ inch thickness), allowed to dry and shipped to a marine research center at Sacred Heart Marine Research Centre (SHMRC) in Tuticorin, India. The panels were mounted on frames on a floating platform in the open ocean and submerged totally under 3 ft of seawater for a period of 6 months, 9, or 12 months.
(§3) After the completion of the exposure period the panels were taken out of the seawater and transported to the shore laboratory in containers with seawater. The panels were evaluated by digital photography and physical examination of the coated surface. Barnacles were counted on the surface of the panels and along the edges. When there was substantial fouling on the surface, the area of the panel surface covered by barnacle fouling was estimated according to the methods described in ASTM D-3623. The panels were returned to the platform and again placed in total immersion. The panels were out of seawater during the examination for no more than 10 minutes.

barnacles [4] = details: 5%, 15 months, per panel side
Source text: as §2, §3

Tube-worms = details: CuSP paint; 5%; 15 months; per panel side; nitrate trihydrate
Source text: as §2, §3

[5] = 1e-4 mg/ml, Total of five replicates
[6] = 0.001 mg/ml, Total of five replicates
[7] = 0.01 mg/ml, Total of five replicates
[8] = 0.1 mg/ml, Total of five replicates

What does the source list for `CSCCC(O)C(=O)[O-].CSCCC(O)C(=O)[O-].[Zn+2]` (stereo not drawn) [HMTBA-Zn, zinc 2-hydroxy-4-methylthiobutanoate chelate]?
% of set (barnacle cyprids; [5]): 61%; Non set (barnacle cyprids; [5]): 122; Set (barnacle cyprids; [5]): 191; % of set (barnacle cyprids; 1e-4 mg/ml, single replicate): 57% and 60% (2×) and 77% and 55%; Non set (barnacle cyprids; 1e-4 mg/ml, single replicate): 28 and 21 and 12 and 25 and 36; Set (barnacle cyprids; 1e-4 mg/ml, single replicate): 37 and 31 and 41 and 38 and 44; % of set (barnacle cyprids; [6]): 58%; Non set (barnacle cyprids; [6]): 135; Set (barnacle cyprids; [6]): 187; % of set (barnacle cyprids; 0.001 mg/ml, single replicate): 62% and 78% and 69% and 41% and 42%; Non set (barnacle cyprids; 0.001 mg/ml, single replicate): 30 and 14 and 16 and 38 and 37; Set (barnacle cyprids; 0.001 mg/ml, single replicate): 49 (2×) and 36 and 26 and 27; appearance and swimming behavior of cyprids (barnacle cyprids; 0.01 mg/ml and higher (so in the source)): no adverse effects; % of set (barnacle cyprids; [7]): 32%; Non set (barnacle cyprids; [7]): 207; Set (barnacle cyprids; [7]): 99; % of set (barnacle cyprids; 0.01 mg/ml, single replicate): 30% and 26% and 40% and 32% and 35%; Non set (barnacle cyprids; 0.01 mg/ml, single replicate): 49 and 54 and 44 and 34 and 26; Set (barnacle cyprids; 0.01 mg/ml, single replicate): 21 and 19 and 29 and 16 and 14; toxic effects on the cyprids (barnacle cyprids; 0.1 mg per ml): death of all cyprids; % of set (barnacle cyprids; [8]): 0%; Non set (barnacle cyprids; [8]): 346; Set (barnacle cyprids; [8]): 0; % of set (barnacle cyprids; 0.1 mg/ml, single replicate): 0%; Non set (barnacle cyprids; 0.1 mg/ml, single replicate): 92 and 69 and 63 and 58 and 64; Set (barnacle cyprids; 0.1 mg/ml, single replicate): 0; EC50 (barnacle cyprids; barnacle cyprids not settled/attached to Petri dish, probit analysis): 5.7 µg/mL; inhibition of barnacle cyprid settlement (barnacle cyprids; in vivo): biologically active as inhibitors of barnacle cyprid settlement; SLOPE (barnacle cyprids; probit analysis, barnacle settlement): 1.564; NO. RESPONDING (barnacle cyprids; probit data as input, DOSE .00001): 97; LS MEAN BARNACLES (barnacles [1]; CUSP PAINT): 3; LS MEAN BARNACLES (barnacles [1]; MFAB PAINT): 1.5; solubility in seawater [2]: soluble in seawater at the levels added; Total barnacle Count (barnacles [3]; CUAB coating, 1% (w/w)): 123; Mean ± SD (barnacle count) (barnacles [3]; CUAB coating, 1% (w/w)): 30.8 ± 11.6; Total barnacle Count (barnacles [3]; CUAB coating, 3% (w/w)): 52; Mean ± SD (barnacle count) (barnacles [3]; CUAB coating, 3% (w/w)): 13.0 ± 10.7; Total barnacle Count (barnacles [3]; CUAB coating, 5% (w/w)): 1; Mean ± SD (barnacle count) (barnacles [3]; CUAB coating, 5% (w/w)): 0.3 ± 0.4; Total barnacle Count (barnacles [3]; CUAB coating, 10% (w/w)): 101; Mean ± SD (barnacle count) (barnacles [3]; CUAB coating, 10% (w/w)): 25.3 ± 2.9; Total barnacle Count (barnacles [3]; CUSP coating, 1% (w/w)): 1; Mean ± SD (barnacle count) (barnacles [3]; CUSP coating, 1% (w/w)): 0.3 ± 0.4; Total barnacle Count (barnacles [3]; CUSP coating, 3% (w/w)): 0; Mean ± SD (barnacle count) (barnacles [3]; CUSP coating, 3% (w/w)): 0; Total barnacle Count (barnacles [3]; CUSP coating, 5% (w/w)): 0; Mean ± SD (barnacle count) (barnacles [3]; CUSP coating, 5% (w/w)): 0; Total barnacle Count (barnacles [3]; CUSP coating, 10% (w/w)): 2; Mean ± SD (barnacle count) (barnacles [3]; CUSP coating, 10% (w/w)): 0.5 ± 0.9; Total barnacle Count (barnacles [3]; MFAB coating, 1% (w/w)): 0; Mean ± SD (barnacle count) (barnacles [3]; MFAB coating, 1% (w/w)): 0; Total barnacle Count (barnacles [3]; MFAB coating, 3% (w/w)): 3; Mean ± SD (barnacle count) (barnacles [3]; MFAB coating, 3% (w/w)): 0.8 ± 1.3; Total barnacle Count (barnacles [3]; MFAB coating, 5% (w/w)): 1; Mean ± SD (barnacle count) (barnacles [3]; MFAB coating, 5% (w/w)): 0.3 ± 0.4; Total barnacle Count (barnacles [3]; MFAB coating, 10% (w/w)): 7; Mean ± SD (barnacle count) (barnacles [3]; MFAB coating, 10% (w/w)): 1.8 ± 1.3; comparative performance (barnacles [3]; copper ablative coatings, 5%, six months): outperformed; efficacy / barnacle settlement (barnacles [3]; copper self-polishing and metal-free ablative coatings, six months of exposure): significant efficacy

Which “LS MEAN BARNACLES” value (barnacles [1]; CUSP PAINT) does the source give for `CSCC[C@H](N)C(=O)O.[Zn]` [Zn-Methionine, zinc methionine] here?
The value was 0.5.

What about the “LS MEAN BARNACLES” value (barnacles [1]; MFAB PAINT) of the same molecule?
The value was 8.

Which results are given for `O.O.O.O=[N+]([O-])[O-].O=[N+]([O-])[O-].[Cu+2]` [Copper (II) Nitrate trihydrate, copper (II) nitrate trihydrate]?
No. of Oyster (Oyster; CuAB paint): 1; No. of Oyster (Oyster; CuSP paint): 2; edge No of Barnacles (barnacles [4]; CuAB paint): 3; Maximum diameter in mm (barnacles [4]; CuAB paint, nitrate trihydrate): 10 mm and 11 mm and 9 mm; No. of barnacles on the coated surface (barnacles [4]; CuSP paint): 84; % of the surface with barnacles fouling (barnacles [4]; CuSP paint, nitrate trihydrate): 50% and 40% and 60%; Maximum diameter in mm (barnacles [4]; CuSP paint, nitrate trihydrate): 10 mm and 11 mm; No. of Tube-worms (Tube-worms): 2 and 1
